ChEMBL document CHEMBL1201862, “PubChem BioAssay data set” (2004)
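Results reflect a 48-hour exposure of cells in 96-well plates to compound at five concentrations. GI50 marks 50% less growth.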 Activity calls are given as the source filed them. Rule as the data show it: active = GI50 up to about 1.1 µM and inactive = higher.

Experiments:
Assay in all cases: DTP human tumour cell line panel, 48 h
OVCAR-8 = system: OVCAR-8
SNB-19 = system: SNB-19
LOX IMVI = system: LOX IMVI
CCRF-CEM = system: CCRF-CEM
SF-295 = system: SF-295
EKVX = system: EKVX
NCI-H460 = system: NCI-H460
KM12 = system: KM12
UACC-257 = system: UACC-257
OVCAR-4 = system: OVCAR-4
HCT-15 = system: HCT-15
UO-31 = system: UO-31
SK-MEL-2 = system: SK-MEL-2
U-251 = system: U-251
NCI-H226 = system: NCI-H226
A549 = system: A549
HOP-92 = system: HOP-92
UACC-62 = system: UACC-62
NCI-H522 = system: NCI-H522
RPMI-8226 = system: RPMI-8226

| SMILES | GI50 (OVCAR-8) | GI50 (SNB-19) | GI50 (LOX IMVI) | GI50 (CCRF-CEM) | GI50 (SF-295) | GI50 (EKVX) | GI50 (NCI-H460) | GI50 (KM12) | GI50 (UACC-257) | GI50 (OVCAR-4) | GI50 (HCT-15) [µM] | GI50 (UO-31) | GI50 (SK-MEL-2) | GI50 (U-251) | GI50 (NCI-H226) | GI50 (A549) | GI50 (HOP-92) | GI50 (UACC-62) | GI50 (NCI-H522) | GI50 (RPMI-8226) |
| --- | --- | --- | --- | --- | --- | --- | --- | --- | --- | --- | --- | --- | --- | --- | --- | --- | --- | --- | --- | --- |
| Cc1ccc(N2C(=O)C(=CN)C(=O)N(c3ccc(C)cc3)C2=O)cc1 | > 100 µM (inactive) | > 100 µM (inactive) | > 100 µM (inactive) | 89.9 µM (inactive) | > 100 µM (inactive) | > 100 µM (inactive) | > 100 µM (inactive) | > 100 µM (inactive) | > 100 µM (inactive) | > 100 µM (inactive) | 62.1 | 53.5 µM (inactive) | 66.8 µM (inactive) | 10 µM (inactive) | > 100 µM (inactive) | > 100 µM (inactive) | 31.1 µM (inactive) | 68.9 µM (inactive) | > 100 µM (inactive) |  |
| O=C1c2ccccc2C(=O)C1(O)c1c[nH]c2ccccc12 | > 100 µM (inactive) | > 100 µM (inactive) | > 100 µM (inactive) | > 100 µM (inactive) | > 100 µM (inactive) | > 100 µM (inactive) | > 100 µM (inactive) | > 100 µM (inactive) | > 100 µM (inactive) | > 100 µM (inactive) | > 100 | > 100 µM (inactive) | > 100 µM (inactive) | > 100 µM (inactive) |  | > 100 µM (inactive) | > 100 µM (inactive) | > 100 µM (inactive) | > 100 µM (inactive) | > 100 µM (inactive) |
| COc1ccc(C(=O)Oc2c(C#N)sc3c2c(=O)n(-c2ccccc2)c(=S)n3-c2ccccc2)cc1 | 24.7 µM (inactive) | 33.2 µM (inactive) | 19.5 µM (inactive) | 15.1 µM (inactive) | 35.7 µM (inactive) | 12.9 µM (inactive) | 30.5 µM (inactive) | 18.5 µM (inactive) | 47.5 µM (inactive) | 28.1 µM (inactive) | 16.7 | 2.12 µM (inactive) |  | 25.8 µM (inactive) | 24.2 µM (inactive) | 30.1 µM (inactive) | 23.6 µM (inactive) | 5.66 µM (inactive) | 0.131 µM (active) | 25.2 µM (inactive) |
| COC(=O)[C@@H](Nc1ccccc1)[C@@]1(C(=O)OC)SC12c1ccccc1-c1ccccc12 | 63 µM (inactive) | > 100 µM (inactive) | 32.7 µM (inactive) | 39.4 µM (inactive) | > 100 µM (inactive) | 61.8 µM (inactive) |  | > 100 µM (inactive) | 84.3 µM (inactive) | 69.2 µM (inactive) | 23.9 | 42.3 µM (inactive) | 74.6 µM (inactive) | 44.1 µM (inactive) | > 100 µM (inactive) | 44.8 µM (inactive) | 9.29 µM (inactive) | 45.2 µM (inactive) | 22 µM (inactive) | 25.8 µM (inactive) |
| COCCOCCOCCOc1ccc(C(C#N)N(CCc2ccccc2)C(=O)c2cc(C(=O)N(CCc3ccccc3)C(C#N)c3ccc(OCCOCCOCCOC)cc3)cc(C(=O)N(CCc3ccccc3)C(C#N)c3ccc(OCCOCCOCCOC)cc3)c2)cc1 (configuration not stated) | > 100 µM (inactive) | > 100 µM (inactive) | > 100 µM (inactive) | > 100 µM (inactive) | > 100 µM (inactive) | > 100 µM (inactive) | > 100 µM (inactive) | > 100 µM (inactive) | > 100 µM (inactive) | > 100 µM (inactive) | > 100 | > 100 µM (inactive) | > 100 µM (inactive) | > 100 µM (inactive) | > 100 µM (inactive) | > 100 µM (inactive) | 85.7 µM (inactive) | > 100 µM (inactive) | > 100 µM (inactive) |  |
| CCN(CC)Cc1sc2nc3ccccc3n2c1-c1ccc(OC)cc1 | 36.9 µM (inactive) | 27.1 µM (inactive) | 28.3 µM (inactive) | 17.1 µM (inactive) | 24.5 µM (inactive) | 27.6 µM (inactive) |  | 20.6 µM (inactive) | > 100 µM (inactive) | 53.2 µM (inactive) | 12.6 | 5.28 µM (inactive) | 43.4 µM (inactive) | 29.2 µM (inactive) | 22.8 µM (inactive) | 31.8 µM (inactive) | 27.8 µM (inactive) | 34.8 µM (inactive) | 4.11 µM (inactive) | 10.5 µM (inactive) |
| CCCCCCCC/C=C/CCCCCCCC(=O)N(O)C1CC(n2cc(C)c(=O)[nH]c2=O)OC1CO (configuration not stated) | 11.4 µM (inactive) | 12.9 µM (inactive) | 4.9 µM (inactive) | 4.22 µM (inactive) | 8.28 µM (inactive) |  | 3.85 µM (inactive) | 11.3 µM (inactive) | 13.2 µM (inactive) | 11.2 µM (inactive) | 4.67 | 3.96 µM (inactive) | 13.7 µM (inactive) | 4.89 µM (inactive) |  | 19 µM (inactive) | 13.8 µM (inactive) | 2.64 µM (inactive) | 7.76 µM (inactive) | 9.68 µM (inactive) |
| Cc1ccc(SC(CCC(Sc2ccc(C)cc2)Sc2ccc(C)cc2)Sc2ccc(C)cc2)cc1 | > 100 µM (inactive) | > 100 µM (inactive) | > 100 µM (inactive) | > 100 µM (inactive) | > 100 µM (inactive) | > 100 µM (inactive) | > 100 µM (inactive) | > 100 µM (inactive) | > 100 µM (inactive) | > 100 µM (inactive) | > 100 | > 100 µM (inactive) | > 100 µM (inactive) | > 100 µM (inactive) |  | > 100 µM (inactive) | 71.1 µM (inactive) | > 100 µM (inactive) | > 100 µM (inactive) | > 100 µM (inactive) |
| O=S(O)c1cc(Cl)c(O)c(Cl)c1 |  | > 100 µM (inactive) | > 100 µM (inactive) | > 100 µM (inactive) |  | > 100 µM (inactive) | > 100 µM (inactive) | > 100 µM (inactive) | > 100 µM (inactive) | > 100 µM (inactive) |  | > 100 µM (inactive) | > 100 µM (inactive) | > 100 µM (inactive) |  |  |  | > 100 µM (inactive) | > 100 µM (inactive) |  |
| COc1ccc(/C(C=O)=C(\Cl)c2ccc(OC)c(OC)c2)cc1 | 75.5 µM (inactive) | > 100 µM (inactive) | > 100 µM (inactive) | 52.4 µM (inactive) | > 100 µM (inactive) | > 100 µM (inactive) | > 100 µM (inactive) |  | > 100 µM (inactive) | > 100 µM (inactive) | > 100 | > 100 µM (inactive) | > 100 µM (inactive) | 32.1 µM (inactive) | > 100 µM (inactive) | > 100 µM (inactive) |  | > 100 µM (inactive) | 5.83 µM (inactive) | > 100 µM (inactive) |
| N#CC(Nc1cccc(C(F)(F)F)c1)c1ccccc1C(F)(F)F (configuration not stated) | 16.3 µM (inactive) | 17.3 µM (inactive) | 5.51 µM (inactive) | 18.4 µM (inactive) | 10.5 µM (inactive) | 15.4 µM (inactive) | 15.5 µM (inactive) | 7.52 µM (inactive) | 14.6 µM (inactive) | 5.58 µM (inactive) | 7 | 17.9 µM (inactive) | 7.21 µM (inactive) | 16.9 µM (inactive) | 15.9 µM (inactive) | 15.3 µM (inactive) |  | 16.2 µM (inactive) | 6.71 µM (inactive) |  |
| C/C(=C1\C(=O)C(c2ccccc2)N(c2ccccc2)C1=O)c1ccc(Cl)cc1 (configuration not stated) |  | 17.4 µM (inactive) | 14.9 µM (inactive) |  | 20 µM (inactive) | 30.8 µM (inactive) | 29.6 µM (inactive) | 22.2 µM (inactive) | 16.9 µM (inactive) | 21.5 µM (inactive) | 19.1 | 19.8 µM (inactive) | 20.1 µM (inactive) | 15.9 µM (inactive) | 18.4 µM (inactive) | 18.2 µM (inactive) | 3.17 µM (inactive) | 16.3 µM (inactive) | 18.2 µM (inactive) | 15.4 µM (inactive) |
| CC(=O)On1c(-c2ccccc2-c2nc3ccccc3n2OC(C)=O)nc2ccccc21 | 36.5 µM (inactive) | 60.5 µM (inactive) | 18.5 µM (inactive) | 41.3 µM (inactive) | 44.7 µM (inactive) | > 10 µM (inactive) |  | 22.5 µM (inactive) | 12.5 µM (inactive) |  | 67.5 | 74.6 µM (inactive) | 22.4 µM (inactive) | 12.8 µM (inactive) | 25.9 µM (inactive) | 41.3 µM (inactive) |  | 21 µM (inactive) | 18.5 µM (inactive) | 7.82 µM (inactive) |
| CCC1(O)C[C@H]2CN(CCCc3c([nH]c4ccccc34)[C@@](C(=O)OC)(c3cc4c(cc3OC)N(C)C3[C@](O)(C(=O)OC)[C@H](OC(C)=O)[C@]5(CC)C=CCN6CC[C@]43[C@H]65)C2)C1 (some centres not stated) | 2.96 µM (inactive) | 1.77 µM (inactive) | 0.583 µM (active) | 0.453 µM (active) | 0.275 µM (active) | 1.63 µM (inactive) | 0.557 µM (active) | 0.578 µM (active) | 1.34 µM (inactive) | 0.353 µM (active) | 2.99 | 4.38 µM (inactive) | 0.63 µM (active) | 0.565 µM (active) |  | 1.46 µM (inactive) | > 10 µM (inactive) | 0.525 µM (active) | 0.194 µM (active) | 0.908 µM (active) |
| CN(Cc1cnc2nc(N)nc(N)c2n1)c1ccc(C(=O)NC(CCC(=O)O)C(=O)O)cc1 (configuration not stated) | < 0.0448 µM (active) | 0.619 µM (active) | < 0.01 µM (active) |  | < 0.0256 µM (active) |  | < 0.01 µM (active) | < 0.0164 µM (active) | 0.815 µM (active) | > 70.8 µM (inactive) | < 0.01 | 0.232 µM (active) | > 100 µM (inactive) | 0.0916 µM (active) | 5.38 µM (inactive) | 0.0384 µM (active) | 25.4 µM (inactive) | < 0.0136 µM (active) | 0.398 µM (active) | < 0.0284 µM (active) |
